Test results reported in patent US9920074B2 (ACEA BIOSCIENCES INC., priority 2013, dated 2018).
“Also recorded” adds a separate entry of the source.

Assays:
Format in all cases: cell-based
[1] = biological target: T1, Btk (Tyr223) phosphorylation in Ramos cells (Homo sapiens, UniProt Q06187); assay: Btk Tyr223 phosphorylation inhibition, western blotting assay (Example 72)
T1 construct: endogenous in cells; host or cells: Ramos cells (ATCC)
Method: Ramos cell line was obtained from the American Type Culture Collection and was maintained at 37° C. with 5% CO2, in media supplemented with 10% fetal bovine serum, penicillin (100 units/mL) and streptomycin (100 μg/mL), Goat F(ab′)2 Anti-Human IgM-UNLB was obtained from SouthernBiotech.
Ramos cells were treated with compounds at indicated doses for 45 min at room temperature, followed by stimulation of 12 μg/mL of IgM for 30 min, and then lysed. Western blots were performed on the cell lysate using Phospho-Btk (Tyr223), Phospho-Btk (Tyr551), Btk, Phospho-PLCγ2 (Tyr1217), PLCγ2, Phospho-p44/42 MAPK (Erk1/2) (Thr202/Tyr204) and p44/42 MAPK (Erk1/2) antibodies (Cell Signaling Technology). The density of blotting band was acquired using ImageJ software, and the IC50 of Btk (Tyr223) phosphorylation was fitted using a non-linear regression model by GraphPad Prism version 4.0.

[2] = biological target: T2, Btk phosphorylation in Ramos cells (Homo sapiens, UniProt Q06187); assay: Pulse chase western blotting assay for irreversibility / binding property; settings: 100 nM for 45 mins, monitored 4, 6 and 8 h post removal
T2 construct: endogenous in cells; host or cells: Ramos cells (ATCC)
T2 sequence (Q06187 whole entry): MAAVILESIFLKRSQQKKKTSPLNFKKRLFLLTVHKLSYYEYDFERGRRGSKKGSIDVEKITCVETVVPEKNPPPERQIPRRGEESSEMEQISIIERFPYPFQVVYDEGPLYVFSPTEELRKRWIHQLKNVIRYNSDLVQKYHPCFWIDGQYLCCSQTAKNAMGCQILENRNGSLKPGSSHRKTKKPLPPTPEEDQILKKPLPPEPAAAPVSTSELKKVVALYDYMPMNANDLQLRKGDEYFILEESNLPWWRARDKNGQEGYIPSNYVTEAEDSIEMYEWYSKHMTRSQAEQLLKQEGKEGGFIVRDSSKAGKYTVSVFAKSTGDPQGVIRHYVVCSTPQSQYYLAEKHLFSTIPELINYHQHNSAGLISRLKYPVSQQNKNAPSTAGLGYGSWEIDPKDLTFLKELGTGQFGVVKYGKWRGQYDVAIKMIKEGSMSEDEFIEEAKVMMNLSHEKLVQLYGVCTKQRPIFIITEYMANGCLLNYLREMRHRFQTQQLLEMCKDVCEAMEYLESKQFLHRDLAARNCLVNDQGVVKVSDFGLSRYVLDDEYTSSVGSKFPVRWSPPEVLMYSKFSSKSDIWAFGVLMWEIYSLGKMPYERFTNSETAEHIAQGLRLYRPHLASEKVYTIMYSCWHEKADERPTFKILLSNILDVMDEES
Method: Ramos cells were treated with Compound I-1 at 100 nM for 45 min. Cells were then re-suspended in compound free media and stimulated with 6 μg/ml IgM at 0, 4, 6 or 8 hours after compound removal. Cells were then lysed after 30 mm IgM stimulation. West blotting analysis were then performed.
Ramos cells were treated with Compounds at 100 nM for 45 min. Cells were then re-suspended in compound free media and stimulated with 6 μg/ml anti-IgM at 0, 4, 6 or 8 hours after compound removal. Cells were then lysed after 30 mm anti-IgM stimulation. Western blotting analysis was then performed.

[3] = biological target: T1, Btk (Tyr223) phosphorylation in Ramos cells; assay: Western blotting assay for Btk (Example 73); settings: 45 min, 6 μg/mL anti-IgM, read-out: Btk Inhibition
In short: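 Ramos cells pre-treated with compound for 45 min at room temperature, then stimulated with 6 μg/mL anti-IgM for 30 min and lysed. Phospho-Btk (Tyr223) measured by Western blot band densitometry; IC50 fitted by non-linear regression.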

[4] = biological target: T3, Jak3 phosphorylation in NK-92 cells (Homo sapiens, UniProt P52333); assay: Western blotting assay for Jak3; settings: 1 hour, IL-2 stimulation, read-out: Jak3 inhibition
T3 construct: endogenous in cells; host or cells: NK-92 cells (ATCC)
T3 sequence (P52333 1-1124): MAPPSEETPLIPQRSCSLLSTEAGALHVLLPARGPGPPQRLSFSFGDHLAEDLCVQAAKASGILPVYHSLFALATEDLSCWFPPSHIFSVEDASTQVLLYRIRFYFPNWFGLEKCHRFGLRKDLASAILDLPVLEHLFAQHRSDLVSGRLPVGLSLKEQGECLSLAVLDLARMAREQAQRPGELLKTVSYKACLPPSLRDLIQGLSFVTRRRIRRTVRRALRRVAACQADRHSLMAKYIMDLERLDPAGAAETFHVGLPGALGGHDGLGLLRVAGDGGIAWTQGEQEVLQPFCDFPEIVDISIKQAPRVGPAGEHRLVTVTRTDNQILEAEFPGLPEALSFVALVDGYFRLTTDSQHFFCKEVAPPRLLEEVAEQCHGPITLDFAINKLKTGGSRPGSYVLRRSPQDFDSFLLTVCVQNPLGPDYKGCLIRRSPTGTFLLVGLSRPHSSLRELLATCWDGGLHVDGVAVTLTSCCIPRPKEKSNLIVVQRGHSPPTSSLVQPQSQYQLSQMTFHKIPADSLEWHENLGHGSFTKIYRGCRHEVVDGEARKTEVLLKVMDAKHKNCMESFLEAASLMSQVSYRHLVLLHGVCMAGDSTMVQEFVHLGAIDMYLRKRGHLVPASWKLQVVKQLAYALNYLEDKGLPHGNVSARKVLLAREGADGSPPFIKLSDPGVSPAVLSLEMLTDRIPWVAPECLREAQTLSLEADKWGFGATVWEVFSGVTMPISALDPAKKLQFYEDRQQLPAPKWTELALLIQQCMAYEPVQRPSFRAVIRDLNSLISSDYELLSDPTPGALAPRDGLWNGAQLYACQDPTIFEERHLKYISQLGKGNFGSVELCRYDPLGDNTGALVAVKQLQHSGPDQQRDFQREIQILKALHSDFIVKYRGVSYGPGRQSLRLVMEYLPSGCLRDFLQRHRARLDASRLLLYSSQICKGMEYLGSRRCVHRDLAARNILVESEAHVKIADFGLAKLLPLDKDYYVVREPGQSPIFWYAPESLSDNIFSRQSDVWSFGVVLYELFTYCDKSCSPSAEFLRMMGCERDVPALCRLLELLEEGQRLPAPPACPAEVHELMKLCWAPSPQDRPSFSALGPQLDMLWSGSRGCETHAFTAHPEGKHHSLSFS
Method: All cell lines were obtained from the American Type Culture Collection and were maintained at 37° C. with 5% CO2. Ramos cell line was maintained in media supplemented with 10% fetal bovine serum, penicillin (100 units/mL) and streptomycin (100 μg/mL). NK-92 cell line was maintained in media supplemented with 10% fetal bovine serum and 10% horse serum, penicillin (100 units/mL) and streptomycin (100 μg/mL), IL-2 10 ng/mL. Goat F(ab′)2 Anti-Human IgM-UNLB was obtained from SouthernBiotech. IL-2 was obtained from Peprotech.
NK-92 cells were treated with compounds at the dosed indicated for 1 hour in incubator, followed by the IL-2 stimulation for 15 minutes. Cells were then collected and lysed to prepare the cellular extraction. Western blots were performed on cell lysate using Phospho-Jak3, Jak3, Phospho-Stat5, Stat5 antibodies (Cell Signaling Technology). The intensity of blotting band was acquired using Image Lab (Bio-Rad) software, and the IC50 of target was generated with GraphPad Prism.

[5] = test system: Stat5 phosphorylation in NK-92 cells; assay: Western blotting assay for Stat5; settings: NK92, 1 hour, IL-2 stimulation, read-out: Stat5 inhibition
In short: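 NK-92 cells, maintained with IL-2, were pre-treated with compound for 1 h, then stimulated with IL-2 for 15 min. Lysates were western blotted for phospho- and total Jak3 and Stat5. IC50 came from densitometry of phospho-band intensity.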

T1 sequence (Q06187 whole entry): as the sequence (Q06187 whole entry) above

C=CC(=O)Nc1cccc(Oc2nc(Nc3ccc(N4CCN(C)CC4)c(F)c3)ncc2OC)c1 [Compound I-2, N-(3-(2-(3-fluoro-4-(4-methylpiperazin-1-yl)phenylamino)-5-methoxypyrimidin-4-yloxy)phenyl) acrylamide]
IC50 ([1]; Btk Tyr223 phosphorylation, 45 min, 12 μg/mL IgM, read-out: BTK Inhibition): < 10 nM | IC50 ([1]; treated 45 mins, read-out: inhibition IC50 of the phosphorylation of BTK protein): 5 nM | reduction of the Btk Tyr223 phosphorylation in Ramos cells ([1]; western blot): reduction of the Btk Tyr223 phosphorylation | inhibition of BTK phosphorylation after compound removal (irreversibility) [2]: remains inhibited up to 8 his; also recorded: long term effect of the inhibition was observed after compounds removal up to 8 hours; also recorded: remains inhibited up to 8 hrs; also recorded: irreversibly inhibited the BTK phosphorylation; also recorded: inhibited the Btk phosphorylation in Ramos cells after 8 hours of removal | IC50 [3]: ≤ 10 nM | IC50 [4]: 200 to 400 nM | IC50 [5]: 200 to 400 nM
